From PubChem BioAssay (NCI)
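These data come from cells grown in 96-well plates and exposed to compound for 48 hours at five concentrations. Here, GI50 denotes the concentration required for 50% inhibition of growth. TGI marks complete inhibition of growth.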

What was measured:
Experiment in all cases: DTP human tumour cell line panel, 48 h; in the data active = GI50 below about 0.43 µM; inactive = the rest
786-0 renal = tested on: 786-0 renal
A498 renal = tested on: A498 renal
A549 NSCLC = tested on: A549 NSCLC
BT-549 breast = tested on: BT-549 breast
CAKI-1 renal = tested on: CAKI-1 renal
CCRF-CEM leukemia = tested on: CCRF-CEM leukemia
COLO 205 colon = tested on: COLO 205 colon
DU-145 prostate = tested on: DU-145 prostate
EKVX NSCLC = tested on: EKVX NSCLC
HCC-2998 colon = tested on: HCC-2998 colon
HCT-116 colon = tested on: HCT-116 colon
HCT-15 colon = tested on: HCT-15 colon
HL-60(TB) leukemia = tested on: HL-60(TB) leukemia
HOP-62 NSCLC = tested on: HOP-62 NSCLC
HOP-92 NSCLC = tested on: HOP-92 NSCLC
HS 578T breast = tested on: HS 578T breast
HT29 colon = tested on: HT29 colon
IGROV1 ovarian = tested on: IGROV1 ovarian
K-562 leukemia = tested on: K-562 leukemia
KM12 colon = tested on: KM12 colon
LOX IMVI melanoma = tested on: LOX IMVI melanoma
M14 melanoma = tested on: M14 melanoma
MALME-3M melanoma = tested on: MALME-3M melanoma
MCF7 breast = tested on: MCF7 breast
MDA-MB-231 breast = tested on: MDA-MB-231 breast
MOLT-4 leukemia = tested on: MOLT-4 leukemia
NCI-H226 lung = tested on: NCI-H226 lung
NCI-H23 lung = tested on: NCI-H23 lung
NCI-H460 lung = tested on: NCI-H460 lung
NCI-H522 lung = tested on: NCI-H522 lung
NCI/ADR-RES ovarian = tested on: NCI/ADR-RES ovarian
OVCAR-3 ovarian = tested on: OVCAR-3 ovarian
OVCAR-4 ovarian = tested on: OVCAR-4 ovarian
OVCAR-5 ovarian = tested on: OVCAR-5 ovarian
OVCAR-8 ovarian = tested on: OVCAR-8 ovarian
PC-3 prostate = tested on: PC-3 prostate
RPMI-8226 leukemia = tested on: RPMI-8226 leukemia
RXF 393 renal = tested on: RXF 393 renal
SF-268 CNS = tested on: SF-268 CNS
SF-295 CNS = tested on: SF-295 CNS
SF-539 CNS = tested on: SF-539 CNS
SK-MEL-2 melanoma = tested on: SK-MEL-2 melanoma
SK-MEL-28 melanoma = tested on: SK-MEL-28 melanoma
SK-MEL-5 melanoma = tested on: SK-MEL-5 melanoma
SK-OV-3 ovarian = tested on: SK-OV-3 ovarian
SN12C renal = tested on: SN12C renal
SNB-19 CNS = tested on: SNB-19 CNS
SR leukemia = tested on: SR leukemia
SW-620 colon = tested on: SW-620 colon
T-47D breast = tested on: T-47D breast
TK-10 renal = tested on: TK-10 renal
U251 CNS = tested on: U251 CNS
UACC-257 melanoma = tested on: UACC-257 melanoma
UACC-62 melanoma = tested on: UACC-62 melanoma
UO-31 renal = tested on: UO-31 renal
ACHN renal = tested on: ACHN renal
MDA-MB-435 = tested on: MDA-MB-435
SNB-75 CNS = tested on: SNB-75 CNS

O=C(O)CCCn1c(SCc2c(Cl)cccc2Cl)nc2ccsc2c1=O
active: GI50 (786-0 renal) 399 nM | GI50 (A498 renal) 311 nM | GI50 (CCRF-CEM leukemia) 377 nM | GI50 (COLO 205 colon) 384 nM | GI50 (HCT-15 colon) 321 nM | GI50 (HL-60(TB) leukemia) 284 nM | GI50 (HOP-92 NSCLC) 236 nM | GI50 (K-562 leukemia) 272 nM | GI50 (KM12 colon) 321 nM | GI50 (M14 melanoma) 366 nM | GI50 (MALME-3M melanoma) 336 nM | GI50 (MCF7 breast) 263 nM | GI50 (NCI-H460 lung) 419 nM | GI50 (NCI-H522 lung) 205 nM | GI50 (NCI/ADR-RES ovarian) 276 nM | GI50 (OVCAR-3 ovarian) 206 nM | GI50 (PC-3 prostate) 354 nM | GI50 (RXF 393 renal) 306 nM | GI50 (SF-295 CNS) 376 nM | GI50 (SF-539 CNS) 260 nM | GI50 (SK-MEL-2 melanoma) 386 nM | GI50 (SK-MEL-5 melanoma) 283 nM | GI50 (SR leukemia) 316 nM | GI50 (SW-620 colon) 407 nM | GI50 (UACC-62 melanoma) 185 nM
50900 nM: TGI (MDA-MB-231 breast)
2780 nM: TGI (RXF 393 renal)
943 nM: TGI (SF-539 CNS)
1620 nM: TGI (OVCAR-3 ovarian)
34200 nM: TGI (UACC-62 melanoma)
23200 nM: TGI (HCC-2998 colon)
12000 nM: TGI (HL-60(TB) leukemia)
57300 nM: TGI (SK-MEL-5 melanoma)
> 100000 nM: TGI (A498 renal) | TGI (A549 NSCLC) | TGI (BT-549 breast) | TGI (CAKI-1 renal) | TGI (CCRF-CEM leukemia) | TGI (DU-145 prostate) | TGI (EKVX NSCLC) | TGI (HCT-116 colon) | TGI (HCT-15 colon) | TGI (HOP-62 NSCLC) | TGI (HOP-92 NSCLC) | TGI (HS 578T breast) | TGI (HT29 colon) | TGI (IGROV1 ovarian) | TGI (K-562 leukemia) | TGI (KM12 colon) | TGI (LOX IMVI melanoma) | TGI (M14 melanoma) | TGI (MALME-3M melanoma) | TGI (MCF7 breast) | TGI (MOLT-4 leukemia) | TGI (NCI-H226 lung) | TGI (NCI-H23 lung) | TGI (NCI-H460 lung) | TGI (NCI/ADR-RES ovarian) | TGI (OVCAR-4 ovarian) | TGI (OVCAR-5 ovarian) | TGI (OVCAR-8 ovarian) | TGI (PC-3 prostate) | TGI (RPMI-8226 leukemia) | TGI (SF-268 CNS) | TGI (SF-295 CNS) | TGI (SK-MEL-2 melanoma) | TGI (SK-MEL-28 melanoma) | TGI (SK-OV-3 ovarian) | TGI (SN12C renal) | TGI (SNB-19 CNS) | TGI (SR leukemia) | TGI (SW-620 colon) | TGI (T-47D breast) | TGI (TK-10 renal) | TGI (U251 CNS) | TGI (UACC-257 melanoma) | TGI (UO-31 renal)
10800 nM: TGI (COLO 205 colon)
32900 nM: TGI (786-0 renal)
32200 nM: TGI (NCI-H522 lung)
inactive: GI50 (A549 NSCLC) 715 nM | GI50 (BT-549 breast) 459 nM | GI50 (CAKI-1 renal) 452 nM | GI50 (DU-145 prostate) 479 nM | GI50 (EKVX NSCLC) 4520 nM | GI50 (HCC-2998 colon) 1850 nM | GI50 (HCT-116 colon) 432 nM | GI50 (HOP-62 NSCLC) 819 nM | GI50 (HS 578T breast) 434 nM | GI50 (HT29 colon) 448 nM | GI50 (IGROV1 ovarian) 1350 nM | GI50 (LOX IMVI melanoma) 509 nM | GI50 (MDA-MB-231 breast) 774 nM | GI50 (MOLT-4 leukemia) 440 nM | GI50 (NCI-H226 lung) 685 nM | GI50 (NCI-H23 lung) 587 nM | GI50 (OVCAR-4 ovarian) 7990 nM | GI50 (OVCAR-5 ovarian) 5740 nM | GI50 (OVCAR-8 ovarian) 828 nM | GI50 (RPMI-8226 leukemia) 489 nM | GI50 (SF-268 CNS) 830 nM | GI50 (SK-MEL-28 melanoma) 698 nM | GI50 (SK-OV-3 ovarian) 710 nM | GI50 (SN12C renal) 661 nM | GI50 (SNB-19 CNS) 517 nM | GI50 (T-47D breast) 482 nM | GI50 (TK-10 renal) 26200 nM | GI50 (U251 CNS) 529 nM | GI50 (UACC-257 melanoma) 58700 nM | GI50 (UO-31 renal) 478 nM

Nc1ccn(C2OC(CO)C3[O][Sn]([c]4ccccc4)([c]4ccccc4)[O]C32)c(=O)n1 (stereo not given)
22800 nM: TGI (U251 CNS)
20500 nM: TGI (SF-539 CNS)
61500 nM: TGI (SW-620 colon)
50100 nM: TGI (SNB-75 CNS)
active: GI50 (A549 NSCLC) 34.4 nM | GI50 (COLO 205 colon) 141 nM | GI50 (DU-145 prostate) 149 nM | GI50 (HCC-2998 colon) 62.9 nM | GI50 (HCT-116 colon) 24 nM | GI50 (MCF7 breast) 98.4 nM | GI50 (NCI-H460 lung) 18.7 nM
inactive: GI50 (786-0 renal) 656 nM | GI50 (ACHN renal) 361 nM | GI50 (BT-549 breast) 30700 nM | GI50 (CAKI-1 renal) 4660 nM | GI50 (EKVX NSCLC) 34200 nM | GI50 (HCT-15 colon) 15000 nM | GI50 (HOP-62 NSCLC) 1510 nM | GI50 (HS 578T breast) 29500 nM | GI50 (HT29 colon) 1450 nM | GI50 (K-562 leukemia) 53200 nM | GI50 (KM12 colon) 35500 nM | GI50 (MALME-3M melanoma) 17900 nM | GI50 (MDA-MB-231 breast) 24100 nM | GI50 (MDA-MB-435) 6250 nM | GI50 (NCI-H23 lung) 390 nM | GI50 (NCI-H522 lung) 10800 nM | GI50 (NCI/ADR-RES ovarian) 4730 nM | GI50 (OVCAR-3 ovarian) 34800 nM | GI50 (OVCAR-4 ovarian) 43100 nM | GI50 (RPMI-8226 leukemia) 13700 nM | GI50 (RXF 393 renal) 1730 nM | GI50 (SF-268 CNS) 1790 nM | GI50 (SF-539 CNS) 2170 nM | GI50 (SK-MEL-5 melanoma) 3750 nM | GI50 (SK-OV-3 ovarian) 26600 nM | GI50 (SNB-19 CNS) 3340 nM | GI50 (SNB-75 CNS) 14000 nM | GI50 (SW-620 colon) 803 nM | GI50 (T-47D breast) 15300 nM | GI50 (TK-10 renal) 32300 nM | GI50 (U251 CNS) 617 nM | GI50 (UACC-62 melanoma) 6360 nM | GI50 (UO-31 renal) 221 nM
22300 nM: TGI (RXF 393 renal)
29000 nM: TGI (NCI-H522 lung)
49100 nM: TGI (RPMI-8226 leukemia)
17900 nM: TGI (HCC-2998 colon)
19600 nM: TGI (DU-145 prostate)
82600 nM: TGI (MDA-MB-231 breast)
